Source: patent US11090317B2, “Aminophosphinic derivatives for preventing and treating eye inflammation” (priority 2017, dated 2021)
Entries after “also recorded” stand apart in the source; their conditions may differ.

Key:
corneal epithelium = settings: topical administration, versus non-treated corneas, cited from earlier work
[1] = tested on: Iba1 (ionized calcium binding adaptor molecule 1); assay: Iba1 immuno-histology in trigeminal ganglion, inflammatory keratitis model induced by LPS; format: in vivo, mice; settings: LPS inflammation model; twice-daily instillation of 10 mM for 5 days
Source text: (§1) ATF3 (activating transcription factor 3) is a transcription factor of the family of ATF which modulates the inflammatory response of several diseases. In physiological conditions, the primary sensory neurones express very little ATF3. An increase in the number of positive neurones for ATF-3 then underlines neuronal suffering linked to an inflammatory process. In the same way, Iba1 (ionized calcium-binding adapter molecule 1) is expressed in the microglial cells activated by the presence of macrophages and thus by an inflammatory process.
(§2) Two hours after the final instillation of LPS, a mixture of 300 μL of ketamine […] (100 mg/kg of body weight) and xylazine (10 mg/kg of body weight, Virbac, France) was injected by intraperitoneal route to deeply anaesthetise the animals. After fixation, the trigeminal ganglia and the eyes were carefully dissected and post-fixated for 48 h in the same fixation mixture. Sections (40 μm) of the complex of the trigeminal sub-nucleus ([…]) were formed using a Vibratom (Leica Microsystems, Germany). The TG were placed in a 10% solution of sucrose in 1×PBS (overnight), then in a 30% solution of sucrose before freezing at −20° C. in a mixture of 7.5% gelatine and 10% sucrose. Sections (14 μm) were made in the cryostat for the TG and the eyes and conserved at −20° C. […]

cornea = assay: Corneal inflammation by in vivo confocal microscopy in inflammatory model induced by LPS (corneal scratch); parameters: species or system mice C57Bl/6; settings: twice-daily instillation of 10 mM for 5 consecutive days; scratch + LPS 50 μg (1× or 2×); evaluated on the 5th day
Description: A corneal epithelial lesion (abrasion designated “scratch” in the figures) is made on the right eye of male mice C57Bl/6, 8 weeks old, using a trephine (diameter 1.5 mm) on the anaesthetised animal (isoflurane). A drop (10 μl) of LPS (50 μg) is […] deposited on the injured area and is left in contact with the cornea until the animal awakens. The experimentalist ensures the animal awakens correctly, which occurs within two minutes following the intervention.
The first topical treatment using a solution of PBS (phosphate buffer pH=7.4) (1×) or a solution of compound 1 (10 mM of compound 1 in a solution of PBS (1×)) was carried out 2 h after the instillation of LPS. This treatment was extended 2 times a day for 5 days. Four animal cages were studied:
The eye inflammation of the mice was evaluated on the 5th day using a confocal microscope in vivo. This enable images to be obtained (cellular and intercellular definition) of the cornea including the corneal epithelium, the nerve plexus, the stroma and the endothelium thanks to a capsule (Tomocap)/corneal module of the apparatus placed in contact with the cornea. The morphological changes of all the cells constituting the cornea and the corneal nerves are easily observable and quantifiable. All of the animals were anaesthetised by intraperitoneal injection (ketamine 100 mg/kg and xylazine 10 mg/kg). […]

[2] = tested on: ATF3 (activating transcription factor 3); assay: ATF3 immuno-histology in trigeminal ganglion, inflammatory keratitis model induced by LPS; format: in vivo, mice; settings: LPS inflammation model; twice-daily instillation of 10 mM for 5 days
Source text: as §1, §2

Row | SMILES | development of an oedema of the stroma (corneal epithelium; 12 h after treatment) | infiltration of immune cells (corneal epithelium) | Iba1 in the trigeminal ganglion (coloration of activated microglial cells expressing Iba-1) versus PBS control group [1] | eye inflammation of the corneas (confocal images) compared to PBS 1× (cornea) | expression of ATF3 in the trigeminal ganglion versus PBS control group [2]
1 | CN1CC[C@]23c4c5ccc(O)c4O[C@H]2[C@@H](O)C=C[C@H]3[C@H]1C5 [morphine] | retard the development of an oedema of the stroma | very few immune cells present | – | – | –
2 | CC(OC(=O)N[C@@H](C)P(=O)([O-])C[C@@H](Cc1ccc(-c2ccccc2)cc1)C(=O)N[C@@H](C)C(=O)[O-])OC(=O)C(C)C.[Na+].[Na+] (some centres unmarked) [compound 1] | – | – | considerably reduces the coloration of activated microglial cells expressing Iba-1; also recorded: reduce significantly | less inflammatory | considerably reduces the expression of ATF3; also recorded: reduce significantly
